The text below walks through data of patent US20260308186A1, “STAT DEGRADERS AND USES THEREOF” (Recludix Pharma, Inc., priority 2023, published 2026).

One test has as its target T1, STAT3 (Homo sapiens, UniProt P40763).
T1 construct: Recombinant STAT3 protein (STAT3(G127-1722))
In words: STAT3 Fluorescence Polarization (FP) Assay. It counts as binding. The settings on record: recombinant STAT3 25 nM; probe 5-FAM-GpYLPQTV-NH2 2 nM; 45 min, room temperature; read-out: STAT3 FP IC50. The method, then:
STAT3 Fluorescence Polarization (FP) Assay
An FP assay was developed to determine IC50 values for test substances. Recombinant STAT3 protein (STAT3(G127-1722)) at 25 nM was combined with a fluorescently labeled, phosphotyrosine peptide probe (5-FAM-GpYLPQTV-NH2) at 2 nM in FP buffer (10 mM HEPES pH 7.4, 50 mM NaCl, 1 mM EDTA, 0.05% Tween 20.2 mM DTT). 50 μL of STAT3-probe mixture was added to serial diluted compounds in black, 96-well plates (Greiner BioOne 655076) to a final concentration of 1% DMSO. Reaction components were mixed, and FP was measured after 45-minute incubation at room temperature using a Tecan Spark multimode plate reader. FP signal (mP) was plotted against the log concentration of the test substances and IC50 values were calculated by nonlinear regression analysis using GraphPad Prism software. For STAT3 FP assay. A=≤100 nM; B=>100-1000 nM; C=>1-10 μM; and D=>10 μM.
Background: Fluorescence polarisation rises when a labelled molecule tumbles more slowly, as on binding a larger partner.

Another test addresses T2, STAT6 (Homo sapiens, UniProt P42226).
T2 construct: Recombinant STAT6 protein (STAT6(W123-T658))
T2 sequence (P42226 123-658): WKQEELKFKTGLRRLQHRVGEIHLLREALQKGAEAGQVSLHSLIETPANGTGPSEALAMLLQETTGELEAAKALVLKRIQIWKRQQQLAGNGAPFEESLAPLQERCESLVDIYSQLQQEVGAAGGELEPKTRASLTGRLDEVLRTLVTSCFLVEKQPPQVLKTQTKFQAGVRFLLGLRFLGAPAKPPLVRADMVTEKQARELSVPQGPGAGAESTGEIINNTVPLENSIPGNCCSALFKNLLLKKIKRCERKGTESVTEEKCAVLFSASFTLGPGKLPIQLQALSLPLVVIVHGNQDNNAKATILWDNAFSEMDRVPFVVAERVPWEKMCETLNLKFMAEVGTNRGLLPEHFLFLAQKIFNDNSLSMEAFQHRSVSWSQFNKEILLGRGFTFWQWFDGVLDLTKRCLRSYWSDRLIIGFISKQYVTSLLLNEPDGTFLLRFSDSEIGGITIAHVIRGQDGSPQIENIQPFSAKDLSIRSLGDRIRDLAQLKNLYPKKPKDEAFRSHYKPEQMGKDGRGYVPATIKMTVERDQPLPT
The test can be described thus: STAT6 Fluorescence Polarization (FP) Assay. It counts as binding. The settings on record: recombinant STAT6(W123-T658) 250 nM; probe 5-FAM-Ap[…]-NH2 2 nM; 45 min, room temperature; read-out: STAT6 FP IC50. The method, then:
STAT6 Fluorescence Polarization (FP) Assay
An FP assay was developed to determine IC50 values for test substances. Recombinant STAT6 protein (STAT6(W123-T658)) at 250 nM was combined with a fluorescently labeled, phosphotyrosine peptide probe (5-FAM-Ap[…]-NH2) at 2 nM in FP buffer (10 mM HEPES pH 7.4, 50 mM NaCl, 1 mM EDTA, 0.05% Tween 20, 2 mM DTT), 50 μL of STAT6-probe mixture was added to serial diluted compounds in black, 96-well plates (Greiner BioOne 655076) to a final concentration of 1% DMSO. Reaction components were mixed, and FP was measured after 45-minute incubation at room temperature using a Tecan Spark multimode plate reader. FP signal (mP) was plotted against the log concentration of the test substances and IC50 values were calculated by nonlinear regression analysis using GraphPad Prism software. For STAT6 FP assay. A=≤300 nM; B=>300-3000 nM; C=>3-30 μM; and D=>30 μM.

The target of another test is T3, pSTAT6 (Homo sapiens, UniProt P42226).
T3 construct: pY641-STAT6 MSD read-out
T3 sequence (P42226 1-847): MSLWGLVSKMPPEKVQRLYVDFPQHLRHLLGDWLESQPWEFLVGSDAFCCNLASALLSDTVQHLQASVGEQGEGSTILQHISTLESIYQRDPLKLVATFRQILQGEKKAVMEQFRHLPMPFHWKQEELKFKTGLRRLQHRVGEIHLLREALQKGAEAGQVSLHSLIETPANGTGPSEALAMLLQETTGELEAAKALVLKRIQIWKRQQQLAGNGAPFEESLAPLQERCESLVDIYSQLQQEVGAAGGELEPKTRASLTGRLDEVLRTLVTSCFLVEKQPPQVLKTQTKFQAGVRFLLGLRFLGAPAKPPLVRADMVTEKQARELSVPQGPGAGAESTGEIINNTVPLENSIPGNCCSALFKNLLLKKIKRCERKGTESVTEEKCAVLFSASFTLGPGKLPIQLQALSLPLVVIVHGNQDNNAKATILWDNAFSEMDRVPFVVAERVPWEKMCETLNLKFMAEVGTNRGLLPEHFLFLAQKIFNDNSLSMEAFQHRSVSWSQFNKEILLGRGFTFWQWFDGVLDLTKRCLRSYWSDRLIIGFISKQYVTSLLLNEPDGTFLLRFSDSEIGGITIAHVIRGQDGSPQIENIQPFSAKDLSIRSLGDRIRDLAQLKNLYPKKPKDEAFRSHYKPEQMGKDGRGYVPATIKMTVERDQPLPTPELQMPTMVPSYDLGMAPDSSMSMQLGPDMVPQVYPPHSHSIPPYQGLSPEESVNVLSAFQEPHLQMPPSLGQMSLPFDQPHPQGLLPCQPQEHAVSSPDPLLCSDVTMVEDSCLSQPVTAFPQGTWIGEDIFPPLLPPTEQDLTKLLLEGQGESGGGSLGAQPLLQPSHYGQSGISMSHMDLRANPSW
In words: MSD-pSTAT-PBMC Assay, pSTAT6 (IL-4 stimulated PBMC). It counts as cell-based. The settings on record: compound 3 hrs, then 1 ng/mL IL-4 for 10 min, pY641-STAT6, read-out: pSTAT6 IC50. From the text: Cryopreserved Peripheral Blood Mononuclear Cells (PBMC) are from AllCells. Recombinant Human IL-4 and IL-6 are from Peprotech. Mouse monoclonal anti-STAT3 antibody, rabbit monoclonal anti-pY705-STAT3 antibody, rabbit monoclonal Anti-pY641-STAT6 antibody, and lysis buffer are from Cell Signaling Technology (CST). Mouse monoclonal anti-STAT6 antibody is from BioLegend. Assay plates, blocker, and anti-rabbit secondary antibody are from Meso Scale Discovery (MSD).
Cryopreserved PBMCs were thawed out and allowed to recover overnight in IMDM+10% heat-inactivated FBS prior to plating 50,000 (STAT3) or 25,000 (STAT6) cells per well in 96-well U-bottom tissue culture plates. Cells were treated with compound for 3 hrs. then stimulated with 10 ng/mL IL-6 (STAT3) or 1 ng/mL IL-4 (STAT6) for 10 min. Cells were then spun down and washed with ice-cold PBS prior to lysing the cell pellet with 1× lysis buffer (CST) with 1×HALT protease and phosphatase inhibitor cocktail (Thermo). Lysates were transferred to and incubated overnight at 4° C. with shaking in QuickPlex 96-well high bind assay plates (MSD) pre-coated overnight with 30 μL per well of 0.6 μg/mL mouse monoclonal anti-STAT3 antibody (STAT3) or 2 μg/mL mouse monoclonal anti-STAT6 antibody (STAT6) in 1×PBS, and pre-blocked for 1 hour with 3% Blocker-A (MSD). Captured protein in the assay plates were then washed and probed with 25 μL per well of 0.25 μg/ml rabbit monoclonal anti-pY705-STAT3 antibody (STAT3) or 0.18 μg/ml rabbit monoclonal Anti-pY641-STAT6 antibody (STAT6) in 1% Blocker-A for 1 hour at room temperature with shaking, then washed and probed with 25 ul per well of 1 ug/ml Sulfo-TAG Labeled Goat Anti-Rabbit Antibody (MSD) in 1% Blocker-A for 1 hour at room temperature with shaking. Assay plates were then washed and 150 μL of 1× Read Buffer-T (MSD) was added to each well prior to reading on an SQ120 MSD Plate Reader. Assay signal from each sample was subtracted by the signal from unstimulated control wells and normalized to DMSO control wells. IC50 values were calculated using Graph Pad Prism Dose-Response Nonlinear Regression with variable slope. For both pSTAT3 and pSTAT6 A=≤100 nM; B=>100-1000 nM; C=>1000-3000 nM; and D=>3 μM.

T1 sequence (P40763 127-722 limits assumed): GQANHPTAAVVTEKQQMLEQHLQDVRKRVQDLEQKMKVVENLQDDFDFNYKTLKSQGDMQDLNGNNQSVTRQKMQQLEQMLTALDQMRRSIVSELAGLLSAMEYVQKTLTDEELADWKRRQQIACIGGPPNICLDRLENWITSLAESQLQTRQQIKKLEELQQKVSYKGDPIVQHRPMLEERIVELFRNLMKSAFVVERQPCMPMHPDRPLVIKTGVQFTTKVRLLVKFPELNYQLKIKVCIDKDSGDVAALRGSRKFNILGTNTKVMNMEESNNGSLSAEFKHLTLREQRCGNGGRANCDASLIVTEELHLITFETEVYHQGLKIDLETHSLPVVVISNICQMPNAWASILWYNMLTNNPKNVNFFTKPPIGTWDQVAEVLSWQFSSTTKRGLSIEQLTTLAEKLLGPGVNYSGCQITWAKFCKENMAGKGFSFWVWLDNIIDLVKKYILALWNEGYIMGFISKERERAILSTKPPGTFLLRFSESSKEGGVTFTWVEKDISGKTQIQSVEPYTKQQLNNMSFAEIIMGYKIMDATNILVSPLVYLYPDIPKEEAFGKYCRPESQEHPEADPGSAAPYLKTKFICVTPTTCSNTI

Consider `Cc1ccc2onc(C(=O)N3CC[C@H]4CC[C@@H](C(=O)N(C)CCC#Cc5cccc6c5CN(C5CCC(=O)NC5=O)C6=O)N4C(=O)[C@@H](NC(=O)c4ccc5ccc(C(F)(F)P(=O)(O)O)cc5c4)C3)c2c1` (stereo partly drawn) [Compound 28, ((7-(((5S,8S,10aR)-8-((4-(2-(2,6-dioxopiperidin-3-yl)-1-oxoisoindolin-4-yl)but-3-yn-1-yl)(methyl)carbamoyl)-3-(5-methylbenzo[d]isoxazole-3-carbonyl)-6-oxodecahydropyrrolo[1,2-a][1,5]diazocin-5-yl)carbamoyl)naphthalen-2-yl)difluoromethyl)phosphonic acid], for which the 50% inhibitory concentration (IC50) (as a rule, the concentration that gives 50% inhibition) at STAT3 is 1 to 10 µM; at STAT6, less than 0.3 µM; at pSTAT6, greater than 3 µM.

For the molecule `Cc1ccc2onc(C(=O)N3CC[C@H]4CC[C@@H](C(=O)N(C)CCCC(=O)N[C@H](C(=O)N5C[C@H](O)C[C@H]5C(=O)N[C@@H](C)c5ccc(-c6scnc6C)cc5)C(C)(C)C)N4C(=O)[C@@H](NC(=O)c4ccc5ccc(C(F)(F)P(=O)(O)O)cc5c4)C3)c2c1` [Compound 29, (difluoro(7-(((5S,8S,10aR)-8-((4-(((S)-1-((2S,4R)-4-hydroxy-2-(((S)-1-(4-(4-methylthiazol-5-yl)phenyl)ethyl)carbamoyl)pyrrolidin-1-yl)-3,3-dimethyl-1-oxobutan-2-yl)amino)-4-oxobutyl)(methyl)carbamoyl)-3-(5-methylbenzo[d]isoxazole-3-carbonyl)-6-oxodecahydropyrrolo[1,2-a][1,5]diazocin-5-yl)carbamoyl)naphthalen-2-yl)methyl)phosphonic acid], the results for the IC50 on STAT3, on STAT6 and at pSTAT6 were 1 to 10 µM, less than 0.3 µM and greater than 3 µM, respectively.

With `Cc1ccc2onc(C(=O)N3CC[C@H]4CC[C@@H](C(=O)N(C)CCCCOc5ccc(C6CCC(=O)NC6=O)cc5)N4C(=O)[C@@H](NC(=O)c4ccc5ccc(C(F)(F)P(=O)(O)O)cc5c4)C3)c2c1` (stereo partly drawn) [Compound 30, ((7-(((5S,8S,10aR)-8-((4-(4-(2,6-dioxopiperidin-3-yl)phenoxy)butyl)(methyl)carbamoyl)-3-(5-methylbenzo[d]isoxazole-3-carbonyl)-6-oxodecahydropyrrolo[1,2-a][1,5]diazocin-5-yl)carbamoyl)naphthalen-2-yl)difluoromethyl)phosphonic acid], the IC50 at STAT3 was 1 to 10 µM; at STAT6 it was less than 0.3 µM; on pSTAT6 it was greater than 3 µM.

Take `Cc1ccc2onc(C(=O)N3CC[C@H]4CC[C@@H](C(=O)NCCOc5cc(C(C(=O)N6C[C@H](O)C[C@H]6C(=O)N[C@H](C)c6ccc(-c7scnc7C)cc6)C(C)C)on5)N4C(=O)[C@@H](NC(=O)c4ccc5ccc(C(F)(F)P(=O)(O)O)cc5c4)C3)c2c1` (stereo partly drawn) [Compound 32, (difluoro(7-(((5S,8S,10aR)-8-((2-((5-(1-((2S,4R)-4-hydroxy-2-(((R)-1-(4-(4-methylthiazol-5-yl)phenyl)ethyl)carbamoyl)pyrrolidin-1-yl)-3-methyl-1-oxobutan-2-yl)isoxazol-3-yl)oxy)ethyl)carbamoyl)-3-(5-methylbenzo[d]isoxazole-3-carbonyl)-6-oxodecahydropyrrolo[1,2-a][1,5]diazocin-5-yl)carbamoyl)naphthalen-2-yl)methyl)phosphonic acid]: the half-maximal inhibitory concentration (IC50) on STAT3 was 1 to 10 µM; at STAT6 it was 0.3 to 3 µM; on pSTAT6, greater than 3 µM.

In the case of `Cc1ccc2onc(C(=O)N3CC[C@H]4CC[C@@H](C(=O)N5CCN(c6cc(C(C(=O)N7C[C@H](O)C[C@H]7C(=O)N[C@H](C)c7ccc(-c8scnc8C)cc7)C(C)C)on6)CC5)N4C(=O)[C@@H](NC(=O)c4ccc5ccc(C(F)(F)P(=O)(O)O)cc5c4)C3)c2c1` (stereo partly drawn) [Compound 33, (difluoro(7-(((5S,8S,10aR)-8-(4-(5-(1-((2S,4R)-4-hydroxy-2-(((R)-1-(4-(4-methylthiazol-5-yl)phenyl)ethyl)carbamoyl)pyrrolidin-1-yl)-3-methyl-1-oxobutan-2-yl)isoxazol-3-yl)piperazine-1-carbonyl)-3-(5-methylbenzo[d]isoxazole-3-carbonyl)-6-oxodecahydropyrrolo[1,2-a][1,5]diazocin-5-yl)carbamoyl)naphthalen-2-yl)methyl)phosphonic acid], the values for the IC50 on STAT3, at STAT6 and at pSTAT6 were 1 to 10 µM, less than 0.3 µM and greater than 3 µM, respectively.
